According to US11820762B2, “Compounds as potential therapeutic agents targeting various neurodegenerative diseases” (The Hong Kong University of Science and Technology, priority 2020, dated 2023):
“Also recorded” adds a separate entry of the source. Like-named read-outs stand apart in the source and are kept apart here.

Key:
[1] = system: Neuro2a cells transfected with DNA (G4C2)29; assay: Cell viability of Neuro2a cells transfected with DNA (G4C2)29 (C9orf72 ALS/FTD cell model); format: cell-based; conditions: for effect on cell viability of (G4C2)29-transfected Neuro2a cells: 1 μg/ml; for viability at 1 µg/mL: Mus musculus, N2a, read-out: cell viability in (G4C2)29-cells
Method: (§1) Cytotoxicity of compounds was tested by MTT assay. Cells were grown in DMEM (Gibco) with 10% FBS and 1% penicillin-streptomycin at 37° C. with 5% CO2. In total, 5×10^3 cells were seeded in each well of 96-well plates and cultured for 24 hours. Then cells were treated with different concentrations of compounds dissolved in DMSO for another 24 hours. After incubating with 20 μl of MTT (5 mg/mL) for each well at 37° C. for another four hours, 100 μl of DMSO was added to dissolve formazan. Absorbance was measured using a Multiskan™ FC microplate photometer at 570 nm. IC50 data were analyzed with GraphPad Prism software.
DNA constructs were transfected to neuronal Neuro2a cell lines using Lipofectamine 2000 (Thermo Fisher Scientific, 11668019). 4 to 6 hours after transfection, fresh culture medium was used to replace the transfection medium, and cells were incubated for another 48 hours to allow recovery and construct expression.

[2] = system: differentiated HT22 cells; assay: cells; format: cell-based; conditions: for EC50: Mus musculus, HT-22, differentiated HT22 cells pre-treated with 5 mM L-glutamate, cell viability; for neuroprotective activity compared with cA: comparison of analogs
Method: as §1
Cultured HT22 cells were differentiated by applying 10 μM retinoic acid (Sigma-Aldrich, R2625-50MG) and 500 μM cAMP (Sigma-Aldrich, A6885) in DEME medium supplied with 0.5% FBS (differentiation medium) and incubated 48 hours before adding other treatments. 5 mM L-glutamate acid was applied to the original differentiation medium for further 24-hours incubation. Cell viability was measured by MTT assay described above.
In the C9orf72 associated ALS/FTD, the G4C2 HRE make motor neurons more vulnerable to aberrant neuron excitation^43. Meanwhile, the hyperactivation of glutamate receptors drives a toxic level of neuronal activity, promoting the non-ATG (RAN) translation of G4C2 repeat-associated DPR proteins^44, leading to further toxicity of motor neurons. Thus, we would like to test our compounds in a glutamate (E)-induced excitotoxicity cell model.

Tau-R3 fibrils = biological target: T1, Tau-R3 fibrils (Homo sapiens, UniProt P10636); assay: TEM imaging of Tau-R3 fibrils; format: biochemical; conditions: cA 10 μg/ml, cB 5 μg/ml, cC 10 μg/ml
T1 construct: Tau-R3 protein was synthesized and purchased from ChinaPeptides Co., Ltd; purchased ChinaPeptides Co., Ltd; host or cells: chemical synthesis
T1 sequence (P10636 623-653 limits assumed): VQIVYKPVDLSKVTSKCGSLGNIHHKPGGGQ
Method: Samples from ThT fluorescence experiments were directly applied to a 300-mesh carbon coating copper grid. 20 μL of aggregate samples were dispensed onto a sheet of parafilm, and a copper grid was placed onto the sample drop for 5 mins. The copper grid with samples was moved to water drop for 5 mins-washing, and then stained with 2% uranyl acetate for 5 mins. Images were captured using a transmission electron microscope (Thermo Scientific Talos L120C) at a magnification of 13500× and an acceleration voltage of 120 kV.
(§2) In the C9orf72 ALS/FTD, there is a strong genetic association between the microtubule-binding protein, tau and the G4C2 HRE. […] The co-expression of Tau and G4C2 repeats produces a synergistic deterioration of the neurodegeneration phenotype of ALS/FTD^46. Considering the tight correlation of Tau aggregation with the ALS/FTD pathogenesis, we tested our compounds in a non-cell-based Tau-R3 aggregation inhibition assay. […] Moreover, we conducted high magnification TEM imaging to characterize the morphological changes of Tau-R3 fibrils with cA, cB and cC treatments. […] Furthermore, the misfolding of tau protein into filaments in neurons of the central nervous system can be found in various neurodegenerative diseases, such as Alzheimer's disease et al. Therefore, the inhibition on tau aggregation represented a potential of cA and its derivatives in targeting multiple other neurodegenerative diseases more than ALS.

Tau-R3 = biological target: T2, Tau-R3 (Homo sapiens, UniProt P10636); assay: Thioflavin T (ThT) fluorescent tau-R3 aggregation assay; format: biochemical; conditions: 20 μM Tau-R3, 10 μM heparin, read-out: IC50 of Tau-R3 aggregation inhibition (converted)
T2 construct: Tau-R3 protein was synthesized and purchased from ChinaPeptides Co., Ltd; purchased ChinaPeptides Co., Ltd; host or cells: chemical synthesis
T2 sequence (P10636 623-653 limits assumed): as above
Method: Tau-R3 protein was synthesized and purchased from ChinaPeptides Co., Ltd. ThT (ab120751, 1 mM) solution was freshly prepared in 50 mM Tris-HCl buffer (pH 7.4) and passed through a 0.45 μm pore size filter to remove insoluble particles before use. Tau-R3 (20 μM) was incubated with 20 μM ThT and 10 μM heparin in the presence or absence of cA, cB and cC. Samples in 200 μL were added to 96-well plates and incubated at 37° C. for 24-48 hours. ThT fluorescence intensity was recorded using a microplate reader with 440/480 nm excitation/emission filters at different time points. Non-linear regression analysis was performed to fit the boltzmann sigmoidal.
as §2

red blood cells = assay: Hemolysis assay; format: cell-based; conditions: 250, 500, 1000 μg/mL; 2% rabbit red blood cells; 37° C., 1 hour
Method: Hemolytic activity was determined with 2% fresh red blood cells from a healthy rabbit. Blood cells were obtained and washed with PBS buffer four to five times and centrifuged at 1500 rpm for 10 mins until the upper phase became clear. Compounds were diluted with PBS to final concentrations of 1000, 500, 250 μg/mL, added to the same volume of 2% red blood cells and incubated at 37° C. for 1 hour. Samples were centrifuged at 10,000 rpm for 5 mins, and supernatants were added into 96-well plates and measured at 570 nm with a Thermo Scientific Multiskan FC multiplate photometer (Thermo Scientific™, USA). An aliquot of 10% Triton X-100 was used as the positive control, and 1% DMSO dissolved in PBS was used as the negative control.

SMILES | effect on cell viability of (G4C2)29-transfected Neuro2a cells [1] | viability at 1 µg/mL ([1]; 1 μg/mL, model group 20%) [%] | EC50 [2] [nM] | morphological change of Tau-R3 fibrils (TEM) (Tau-R3 fibrils) | IC50 (Tau-R3) [nM] | hemolytic activity (red blood cells) | cytotoxicity (structure-activity summary) [2] | neuroprotective activity compared with cA [2] | viability at 1 µg/mL [1] [%]
CC(=O)Cc1cc2c(c(O)c1C(=O)O)-c1c(c(O)c3oc4c(O[C@@H]5OC(C(=O)O)=C[C@H](O)[C@H]5O)cccc4c(=O)c3c1O)CC2 [cA, chrexanthomycin A] | partially increased the cell viability | 30 | 310 | broken into shorter and thinner fragments | ~518 | no hemolytic activity even at the concentration of 1000 μg/ml; also recorded: no hemolytic activity with a pretty high concentration of 1 mg/ml | – | – | –
COc1c2c(c(O)c3c(=O)c4cccc(O[C@@H]5OC(C(=O)O)=C[C@H](O)[C@H]5O)c4oc13)-c1c(cc(CC(C)=O)c(C(=O)O)c1O)CC2 [cB, chrexanthomycin B] | made it worse; also recorded: even worse than the model group | – | 11100 | broken into shorter and thinner fragments | 2050 | significant hemolytic activity starting at 500 μg/ml; also recorded: significant hemolytic activity starting at 0.5 mg/ml | potent cytotoxicity | worse than cA | –
CC(=O)Cc1cc2c(c(O)c1C(=O)O)-c1c(c(O)c3oc4c(O[C@@H]5O[C@H](C(=O)O)[C@@H](O)[C@H](O)[C@H]5O)cccc4c(=O)c3c1O)CC2 [cC, chrexanthomycin C] | partially increased the cell viability | – | – | broken into shorter and thinner fragments | 5760 | no hemolytic activity even at the concentration of 1000 μg/ml; also recorded: no hemolytic activity with a pretty high concentration of 1 mg/ml | – | better neuroprotective activity than cA | 40
